Laboratory results published in patent US10251842B1, “Nanocapsule containing a bioactive compound, and a method of reducing toxicity resulting from cancer therapy” (King Abdulaziz University, priority 2017, dated 2019).
Marks after values point to notes of the source that are not given here.

Experiments:
[1] = system: SUIT2 pancreatic cancer cells; assay: MTT cell viability/proliferation assay, SUIT2; type: cell-based, human; conditions: SUIT2, 24 hours, 1 μg/ml
Experimental: SUIT2-luc cells were grown in DMEM supplemented with 5% fetal bovine serum, 1% penicillin, and 1% streptomycin. Cells were cultured at 37° C. to sub-confluence and treated with 0.25% w/v typsin/EDTA to affect cell release from culture flask. After washing cells with culture medium, cells were suspended in DMEM (free of phenol red and fetal bovine serum) and counted.
SUIT2 cells were subjected to treatment with unencapsulated DIM, unencapsulated EA, combinations thereof, and the nanocapsules containing DIM and/or EA at concentrations of the bioactive compounds ranging from 0.1 to 10 μg. Briefly, cells were seeded at a density of 10^4 cells/well in 96-well plates, and then incubated with compounds and nanocapsules for 24 hours. Cell viability/proliferation was determined by MTT assay, as per the manufacturer's protocol. MTT solution was added to each well, and cells were further incubated for 4 hours at 37° C. The formed dye was solubilized by the addition of 50 μL of DMSO and incubated for 10 min at 37° C. The optical density of each well was determined using an ELISA plate reader at an activation wavelength of 570 nm and reference wavelength of 650 nm. The percentage of viable cells was determined by comparison to untreated control cells.

[2] = system: cisplatin-induced NF-κB; assay: NF-κB luciferase assay in HeLa cells stimulated with cisplatin; type: cell-based; conditions: Homo sapiens, 3 μM (3 μM total for combinations), n = 3, read-out: Mean % inhibition of cisplatin-induced NFkB ± SD
Experimental: The induction of NF-κB by cisplatin and other chemotherapies is known to be associated with neuropathy and nephrotoxicity. In this example, the effect of unencapsulated DIM and EA, and the nanocapsules cisplatin-induced NF-κB was studied using HeLa cells which expressed NF-κB.
HeLa cells were seeded at 1×10^5 cells in 2 ml/well in 6-well plates at 37° C. for 24 hours. The doses of the test compounds were based on preliminary studies. Test compounds (nanocapsules containing DIM, nanocapsules containing E&, nanocapsules containing DIM and EA, unencapsulated DIM, and unencapsulated EA) were added at concentrations ranging from 1-3 μM to the plate with fresh medium including 0.5% FBS and incubated at 37° C. in 5% CO2 for an additional 3 hours. For induction of transcription and to test the biological response of the promoters, the cell line stimulated with cisplatin (Sigma) and the cells were incubated at 37° C. in 5% CO2 for 24 hours. The luciferase activity determined by using the luciferase assay system (Promega, Madison, Wis., US). […] Luminescence was immediately measured using Glomax 20/20 Illuminometer (Promega). Luciferase expression of each test compound was quantified as the relative light units (RLU), normalized to readings of control wells, and expressed as relative NF-κB reporter activity. The mean % inhibitory effects of the compounds were calculated.

[3] = system: SUIT2 pancreatic tumor; assay: CAM pancreatic cancer cell implant model (tumor growth, tumor angiogenesis, IVIS bioluminescence); type: in vivo, chick embryo; conditions: for suppression of vascular pattern / tumor angiogenesis of pancreatic tumor: 1 μg/CAM, 3 days of incubation, nanocapsules versus unencapsulated; for viable pancreatic cancer cells, bioluminescence (IVIS): SUIT2-luc tumors, ex vivo imaging
Experimental: To determine the relative potency of different nanocapsules and unencapsulated bioactive compounds, they were tested in the CAM pancreatic cancer cell implant model of tumor growth and tumor angiogenesis by modifying published protocols (Marcinkiewicz C. Weinreb P H, Calvete J J, Kisiel D G, Mousa S A, Tuszynski G P, Lobb R R. A Potent Selective Inhibitor of alpha1beta1 Integrin in Vitro and Angiogenesis in Vivo. Cancer Res. 2003; 63(9): 2020-2023; and Deryugina E I and Quigley J P: Chick Embryo Chorioallantoic Membrane Models to Quantify Angiogenesis induced by inflammatory and tumor cells or purified effector molecules. Methods in Enzymol. 2008; 444: 21-41, each incorporated herein by reference in their entirety).
A 7-day old chick embryo were purchased from Spafas, Inc. (Preston, Conn.) and incubated at 37° C. with 55% relative humidity. A hypodermic needle was used to make a small hole in the shell at the air sac and a second hole will be made on the broadside of the egg, directly over an avascular portion of the embryonic membrane that was identified by candling. A false air sac was created beneath the second hole by the application of negative pressure at the first hole, causing the CAM to separate from the shell. […] Treatment effects (Tumor growth, and tumor angiogenesis were determined 7 days after tumor cell implantation. For these studies, Matrigel® (BD Bioscience, San Jose Calif.) were thawed overnight at 4° C. and placed on ice. Cells in exponential growth phase were harvested using 0.25% trypsin-EDTA washed and suspended in medium. Only suspensions of single cells with a viability exceeding 95% were used. Approximately 1×10^6 cells in 30 μL of medium mixed with same volume (30 μL) of Matrigel was implanted on the chorioallantoic membrane.
After incubation at 37° C. with 55% relative humidity for 3 days, the CAM tissue directly beneath each filter disk was resected from control and treated CAM samples. […] Digital images of CAM sections exposed to filters were collected, using a 3-CCD color video c vera system (Toshiba America, New York, N.Y.), and analyzed with Image-Pro software (Media Cybernetics, Silver Spring, Md.). The numbers of vessel branch points contained in a circular region equal to the area of each filter disk were counted. One image was counted in each CAM preparation, and findings from 6-8 CAM preparations group were analyzed for each treatment condition.
Results presented as mean tumor weight (mg) per treatment group and tumor hemoglobin (mg/dl)±SD, n=8 eggs per group. The effect of these treatments was determined after 7 days of implantation. […]

[4] = Plasma cardiac troponin in MCF-7 tumor bearing mice; type: in vivo
[5] = system: breast cancer MCF-7 tumor; assay: Subcutaneous xenograft in nude mice, breast cancer MCF-7; type: in vivo; conditions: SC, mean ± SEM, n = 4-5 animals/group
Experimental: Immunodeficient, female NCr nude mice aged 5-6 weeks and weighing between […] were maintained under specific pathogen-free conditions and housed under controlled conditions of temperature (20-24° C.) and humidity (60-70%) and 12 h light/dark cycle with ad libitum access to water and food. Mice were allowed to acclimatize for 5 days prior to the start of study.
Xenografts containing 1×10^6 to 2×10^6 tumor cells (e.g., pancreatic SUIT2, colon HT-29, glioblastoma U87, or breast cancer MCF-7 cells) were implanted subcutaneously in a mouse flank. There were 2 grafts mouse and there were 4 mice in each group (control, treatments using vehicle). DMSO or ethyl acetate used during the preparation of nanocapsules was totally removed by dialysis and the vehicle used to disperse the DIM or EA and their nanocapsule forms was phosphate buffered saline (PBS).
Tumors were excised at the end of the study from all treatment arms, which included control; DIM; EA; nanocapsule containing DIM; nanocapsule containing EA; nanocapsule containing DIM acid EA; nanocapsule containing cisplatin; nanocapsule containing doxorubicin; nanocapsule containing cisplatin, DIM, and EA; and nanocapsule containing doxorubicin, DIM, and EA. Tumor growth was measured.

| plasma cardiac troponin ([4]; MCF-7 tumor bearing mice) | Troponin (% from control) ([4]; mice, SC) | SMILES | effect on cell viability/proliferation [1] | inhibition at 3 µM [2] | suppression of vascular pattern / tumor angiogenesis of pancreatic tumor [3] | viable pancreatic cancer cells, bioluminescence (IVIS) [3] | Mean Breast (MCF-7) Tumor Growth [5] |
| --- | --- | --- | --- | --- | --- | --- | --- |
| – | – | c1ccc2c(Cc3c[nH]c4ccccc34)c[nH]c2c1 [DIM, 3,3′-diindolylmethane] | did not show any significant effect | 20 ± 5% | mild suppression | statistically significant reduction | – |
| large increase | +50-70%** | COc1cccc2c1C(=O)c1c(O)c3c(c(O)c1C2=O)C[C@@](O)(C(=O)CO)C[C@@H]3O[C@H]1C[C@H](N)[C@H](O)[C@H](C)O1 [DOX, doxorubicin] | – | – | – | – | 0.70 ± 0.15 g |
| – | – | O=c1oc2c(O)c(O)cc3c(=O)oc4c(O)c(O)cc1c4c23 [Ellagic acid, ellagic acid] | did not show any significant effect | 26 ± 4% | mild suppression | statistically significant reduction | – |
